Key:
[1] = system: reactive oxygen species (ROS); conditions: 100 nM, 24 hours exposure; cited from earlier work
[2] = system: 4T1 breast carcinoma cells; assay: Subcutaneous 4T1 breast tumor growth and lung metastasis in mice; assay type: in vivo
Experimental: Sub-confluent cultures of 4T1 breast carcinoma cells were harvested, washed and resuspended in PBS. Female nude mice or Balb/c strain mice were injected subcutaneously with approximately 1×10^6 tumor cells. Subcutaneous tumors were allowed to grow for 7 days, at which time the mice were treated daily by intraperitoneal injections of the following: • PABA alone (500 μg/mouse) • Radiation alone (9.0 Gy) • PABA and radiation • Docetaxel (8.0 mg/kg 1 time/week, intraperitoneal administration) • PABA and docetaxel (daily PABA and intraperitoneal administration of 8.0 mg/kg docetaxel 1 time/week) Untreated mice were used as a control. Tumor growth was gauged by weekly caliper measurements. After 28 days, the mice were sacrificed and tumor volumes were calculated by standard methods using the formula […], where V=volume, L=length and W=width.

[3] = system: SKOV-3 ovarian carcinoma cells; assay: MTT proliferation assay, SKOV-3 cells; assay type: cell-based; conditions: topotecan 0.1 uM alone, compared to untreated controls
Experimental: Similarly, SKOV-3 ovarian carcinoma cells were incubated with or without PABA at 0.1 mg/ml in DMEM for 3 days and subsequently exposed to topotecan at concentrations of 0, 0.1, 0.5 and 2.0 μM, and ^90Y-huBrE-3 at concentrations of 0, 1.0, 2.0, and 4.0 μCi, and evaluated using an MTT assay after 72 hrs.

[4] = cited from earlier work
[5] = system: CDC25A; assay: Western blot, CDC25A; assay type: cell-based; conditions: G361 melanoma cells; 2 weeks with PABA
Experimental: (§1) Western blot analysis was performed to confirm the altered expression of CDC25A, c-Myc and BRCA-2 at the protein level. G361 melanoma cells were cultured for 2 weeks in the presence or absence of PABA. The cells were harvested and lysed in 1.0% Triton-X-100 lysis buffer. Equal amounts of total cell lysates (50 μg/lane) were separated by 10% SDS PAGE and the proteins were transferred to nitrocellulose membranes. The membranes were probed with monoclonal antibodies P4C10 (anti-β1 integrin), 3303 (anti-BRCA-2) and Ab-3 (anti-CDC25A) or secondary antibody only. […] BRCA-2 expression was decreased in cells treated with PABA compared to cells grown in the absence of PABA. […] In similar studies, c-Myc expression in 4T1 breast carcinoma cells and G361 melanoma cells was examined by Western blot. The nitrocellulose membranes were probed with anti-c-Myc monoclonal antibody 9402 (available from Cell Signaling Technology, Beverly, Mass.) and anti-actin monoclonal antibody. […] No change in actin levels was observed.

[6] = system: cell cycle control genes in B16F10 and G361 melanoma cells; assay: AFFYMATRIX cDNA array analysis of tumor cells; assay type: cell-based, human and mouse; conditions: PABA 100 μg/ml
Experimental: (§2) An AFFYMATRIX™ based cDNA array analysis was performed on tumor cells cultured in the presence or absence of PABA (100 μg/ml). A number of genes within the tumor cells were differentially expressed following PABA treatment. Experiments were conducted on genes that were consistently altered in both human and mouse tumor cells. […] To confirm these findings, the expression of CDC25A was analyzed. 4T1 breast carcinoma cells and B16F10 melanoma cells were incubated in the presence or absence of PABA. After 7 days, the RNA was isolated. The relative levels of CDC25A mRNA were examined by RT-PCR or real time PCR. FIG. 8.

[7] = system: actin; assay: Western blot, actin; assay type: cell-based
Experimental: as §1
P21^CIP1 is a cell cycle dependent kinase inhibitor, which has a role in regulating the sensitivity of breast cancer cells to chemotherapeutic agents such as TAXOL®. 4T1 breast cancer cells were incubated in the presence or absence of PABA (100 μg/ml) for 7 days. The cells were washed and cell lysates were prepared. Levels of P21^CIP1 were analyzed by Western blot. […]

[8] = system: P21^CIP1; assay: Western blot, P21^CIP1; assay type: cell-based; conditions: 4T1 breast cancer cells; PABA 100 μg/ml 7 days
Experimental: P21^CIP1 is a cell cycle dependent kinase inhibitor, which has a role in regulating the sensitivity of breast cancer cells to chemotherapeutic agents such as TAXOL®. 4T1 breast cancer cells were incubated in the presence or absence of PABA (100 μg/ml) for 7 days. The cells were washed and cell lysates were prepared. Levels of P21^CIP1 were analyzed by Western blot. Equal amounts (50 μg/lane) were separated by SDS PAGE and transferred to nitrocellulose membranes. The membranes were probed with anti-P21^CIP1 or anti-actin monoclonal antibodies.

[9] = system: melanogenesis; conditions: in vitro and in vivo, alone or in combination with chemotherapy or radiation therapy; cited from earlier work
[10] = system: c-Myc; assay: Western blot, c-Myc; assay type: cell-based
Experimental: as §1

[11] = system: Lewis Lung carcinoma cells; conditions: cited from earlier work
[12] = system: Lewis Lung carcinoma cells; assay: Chick embryo CAM tumor growth, Lewis Lung carcinoma; assay type: in vivo, chick embryos; conditions: PABA 100 ug/ml, TAXOL 0.01 μM, 7 days
Experimental: Lewis Lung carcinoma cells and murine 4T1 breast carcinoma cells (available from American Type Culture Collection, Rockville, MD-No. CRL-2539), were cultured in growth medium in the presence or absence of PABA (100 ug/ml) for at least 7 days. The cells were harvested, washed and resuspended in sterile PBS, followed by implantation on the chorioallantoic membranes (CAM) of 10-day old chick embryos. Embryos were allowed to incubate for 24 hours. The embryos were then treated with either a single fraction dose of ionizing radiation (5.0 Gy) or TAXOL® (0.01 μM) and allowed to incubate for 7 days.

[13] = system: G361 melanoma cells; assay: Cell cycle analysis by flow cytometry, G361; assay type: cell-based; conditions: PABA 100 μg/ml 2 weeks, untreated 12%
Experimental: (§3) G361 melanoma cells and 4T1 breast cancer cells were cultured in the presence or absence of PABA (100 μg/ml) for 2 weeks. The tumor cells were synchronized by serum starvation and cultured for 2 hours in 10% serum-containing medium. The cells were harvested, washed, fixed and stained with propidium iodide. Cell cycle analysis was performed by flow cytometry. The relative levels of untreated G361 cells (12%) and 4T1 cells (10%) in S-phase were low compared. FIG. 9. In contrast, 72% of PABA-treated G361 cells and 40% of PABA-treated 4T1 cells were in S-phase.

[14] = system: 4T1 breast cancer cells; assay: Cell cycle analysis by flow cytometry, 4T1; assay type: cell-based; conditions: PABA 100 μg/ml 2 weeks, untreated 10%
Experimental: as §3

[15] = system: H460 non-small cell lung cancer cells; assay: Reactive oxygen species by FACS; assay type: cell-based; conditions: PABA 100 μg/ml
Experimental: H460 non-small cell lung cancer cells were grown in the presence or absence of PABA (100 μg/ml) in RPMI-1640 media containing 10% fetal calves serum, 1% penn/strep and 1% NaPyruvate. After 24 hours, a portion of the cells were exposed to 0.01 bortezomib (10 nM) for an additional 24 hours. […] The cells were monitored for ROS by the addition of dihydrothidine at a concentration of 5 μM for 15 minutes followed by fixation in ethanol and analysis by FACS. […] FIG. 10. Cells treated with PABA and bortezomib had about a 2 fold increase in ROS compared to cells treated with bortezomib alone.

[16] = system: BRCA-2; assay: Western blot, BRCA-2; assay type: cell-based; conditions: G361 melanoma cells; 2 weeks with PABA
Experimental: as §1

[17] = system: β1 integrin subunit; assay: Western blot, β1 integrin; assay type: cell-based; conditions: G361 melanoma cells; 2 weeks with PABA
Experimental: as §1

[18] = system: CDC25A mRNA; assay: CDC25A mRNA by RT-PCR; assay type: cell-based; conditions: 7 days
Experimental: as §2

[19] = system: murine 4T1 breast carcinoma cells; assay: Chick embryo CAM tumor growth, 4T1 breast carcinoma; assay type: in vivo, chick embryos; conditions: 4T1 on CAM; PABA 100 ug/ml; 7 days
Experimental: Lewis Lung carcinoma cells and murine 4T1 breast carcinoma cells (available from American Type Culture Collection, Rockville, MD-No. CRL-2539), were cultured in growth medium in the presence or absence of PABA (100 ug/ml) for at least 7 days. The cells were harvested, washed and resuspended in sterile PBS, followed by implantation on the chorioallantoic membranes (CAM) of 10-day old chick embryos. Embryos were allowed to incubate for 24 hours. The embryos were then treated with either a single fraction dose of ionizing radiation (5.0 Gy) or TAXOL® (0.01 μM) and allowed to incubate for 7 days. Tumor growth was assessed by measuring the wet weights of resected tumors (5-10 tumors per condition).

[20] = system: stage II or stage III breast cancer; conditions: cited from earlier work
[21] = system: hormone receptor-positive tumors; conditions: 3-year; cited from earlier work
[22] = system: MCF7 breast carcinoma cells; assay: MTT proliferation assay, MCF7 cells; assay type: cell-based; conditions: Homo sapiens, PABA 0.1 mg/ml 3 days, 5-FU 1 μM, ^90Y-huBrE-3 1 μCi, MTT after 72 hours
Experimental: Pharmaceutical grade ^90Y was buffered in 0.05M acetate and incubated with MX-DTPA-huBrE-3 and 5 mM EDTA for 1 hr, followed by purification on a Bio-Gel P6 column eluted with 1% human serum albumin to generate radiolabeled ^90Y-huBrE-3 antibody. MCF7 breast carcinoma cells were incubated with and without PABA (0.1 mg/ml) in DMEM media for 3 days, and then exposed to 5-fluorouracil (5-FU) in concentrations of 0, 0.05, 0.1, 1.0 and 5.0 μM, and concentrations of ^90Y-huBrE-3 in concentrations of 0, 1.0, 2.0, and 4 μCi. Effects on proliferation were monitored after 72 hours using a commercially available MTT assay.

[23] = system: MCF-7 xenograft; conditions: subtherapeutic doses; cited from earlier work

## CC(C)C[C@H](NC(=O)[C@H](Cc1ccccc1)NC(=O)c1cnccn1)B(O)O [bortezomib]
[1]
  induction of reactive oxygen species (ROS): actively induce reactive oxygen species (ROS)

## CC(=O)O[C@@]12CO[C@@H]1C[C@H](O)[C@@]1(C)C(=O)[C@H](O)C3=C(C)[C@@H](OC(=O)[C@H](O)[C@@H](NC(=O)OC(C)(C)C)c4ccccc4)C[C@@](O)([C@@H](OC(=O)c4ccccc4)[C@H]21)C3(C)C [docetaxel, reference compound]
[2]; docetaxel 8.0 mg/kg 1 time/week i.p., PABA 500 μg/mouse daily, 28 days (FIG. 3)
  reduction of tumor growth: ~45%

## CC[C@@]1(O)C(=O)OCc2c1cc1n(c2=O)Cc2cc3c(CN(C)C)c(O)ccc3nc2-1 [topotecan]
[3]
  inhibition of proliferation: minimally

## Nc1ccc(C(=O)O)cc1 [PABA, p-amino-benzoic acid]
[4]; after ingestion
  time of peak plasma concentration after ingestion: about ¾
[4]; in vivo
  mean half life: about 0.5 hours
[5]
  CDC25A protein expression: markedly increased
[6]
  BRCA-2 gene expression: down-regulated
  H2A histone gene expression: down-regulated
  H2B histone gene expression: down-regulated
  P21^CIP1 gene expression: down-regulated
[7]; 4T1 and G361 cells, c-Myc blots
  actin levels: No change
[7]; 4T1 breast cancer cells, PABA 100 μg/ml 7 days
  level of actin: Little change
[8]
  levels of P21^CIP1: significantly reduced
[9]
  melanogenesis: inhibits melanogenesis
[10]; 4T1 cells
  c-Myc protein expression: significant up-regulation
[10]; G361 cells
  c-Myc protein expression: significant up-regulation
[2]; PABA 500 μg/mouse daily i.p., radiation 9.0 Gy, 28 days (FIG. 4)
  reduction of mean tumor volume compared to untreated control mice: about 26%
[11]
  in vitro proliferation of Lewis Lung carcinoma cells: inhibit the in vitro proliferation
[12]
  effect on growth of Lewis Lung tumors: neither PABA nor TAXOL® alone inhibited the growth
[13]
  cells in S-phase: 72%
[14]
  cells in S-phase: 40%
[15]
  increase in ROS compared to untreated cells: 3 fold
[16]
  BRCA-2 protein expression: decreased
[17]
  β1 integrin subunit expression: no change
[18]; 4T1 breast carcinoma cells
  increase in levels of CDC25A mRNA compared to untreated controls: about 2 fold
[18]; B16F10 melanoma cells
  increase in levels of CDC25A mRNA compared to untreated controls: about 2 fold
[19]
  effect on 4T1 breast carcinoma tumor growth: Neither PABA alone nor a single fraction dose of ionizing radiation had any effect

## CC/C(=C(\c1ccccc1)c1ccc(OCCN(C)C)cc1)c1ccccc1 [tamoxifen]
[20]; at 10 years
  overall survival: 36%
[20]; median follow-up of 10 years, tamoxifen 30 mg daily for 1 year
  local-regional recurrence: 35%
[21]
  disease-free survival: 67%
  overall survival: 85%

## O=c1[nH]cc(F)c(=O)[nH]1 [5-FU, 5-fluorouracil]
[22]
  inhibition at 1 µM: ~25%

## CC(=O)O[C@H]1C(=O)[C@@]2(C)[C@H]([C@H](OC(=O)c3ccccc3)[C@]3(O)C[C@H](OC(=O)[C@H](O)[C@@H](NC(=O)c4ccccc4)c4ccccc4)C(C)=C1C3(C)C)[C@]1(OC(C)=O)CO[C@@H]1C[C@@H]2O [TAXOL®, paclitaxel, reference compound]
[23]
  responses with either treatment modality alone: no responses
[12]
  effect on growth of Lewis Lung tumors: neither PABA nor TAXOL® alone inhibited the growth
